From patent US11459586B2, “Methods for increasing efficiency of nuclease-mediated gene editing in stem cells” (President and Fellows of Harvard College, priority 2016, dated 2022) come the findings set out here.

The experiment relates to human iPSC. Description: mThy1 gene targeting in hiPSC lentivirally overexpressing anti-apoptotic genes (EGFP+ vs EGFP- subsets). The format is cell-based. The following applies: lentiviral overexpression. The source says:
FIGS. 3A-D. Overexpression of anti-apoptotic factors increases gene targeting rates in human iPSC, both for HR-mediated gene replacement and NHEJ-mediated gene excision. FIG. 3A. Mouse Thy1 gene targeting scheme. Two Crispr sgRNAs target human THY1 either within intron 1 (Left) or after the polyadenylation site (Right). The mouse Thy1 targeting vector plasmid contains mThy1 coding exons 2 and 3, flanked by hThy1 homology arms outside the sgRNA sites—coding exon 1 (which encodes the signal peptide) is retained but the sgRNA sites are disrupted. FIG. 3B. Plain human iPSC were infected with lentivirus that constitutively expresses EGFP together with an anti-apoptotic gene separated by an IRES. Three days after infection, each culture was nucleofected with plasmids encoding the mThy1 targeting vector, Cas9 nuclease, and Thy1 Left, Right, both, or no sgRNAs (pUC19). Five days later, cells were analyzed by flow cytometry. FIG. 3C. Representative FACS plots gated on live single cells: iPSC from each transfected culture were gated based on EGFP expression and the percentage of cells within those subsets that have gained mThy1 expression and/or lost hThy1 expression are indicated. […]
Subsequently, we determined whether rescue by these anti-apoptotic genes would result in higher gene editing frequencies in hiPSC. […]

For “Bcl-2: B cell lymphoma 2 protein, anti-apoptotic, overexpressed from lentivirus or Cas9 plasmid”, the “frequency of NHEJ-mediated hThy1 homozygous gene deletions” value (both Thy1 sgRNAs) was “increased”. Moreover, under “one sgRNA”, the “frequency of HR-mediated mThy1 homozygous gene replacements” value is “dramatic increase”.
